Data reported in ChEMBL document CHEMBL1649476, “In vitro chemosensitization of Plasmodium falciparum to antimalarials by verapamil and probenecid” (Antimicrob Agents Chemother, 2009).

Legend:
Plasmodium falciparum [1] = assay: Antiplasmodial activity against multidrug-resistant Plasmodium falciparum VS/1 by [3H]hypoxanthine incorporation assay; type: functional, organism-based
Plasmodium falciparum [2] = assay: Chemosensitization of primaquine against multidrug-resistant Plasmodium falciparum VS/1 by [3H]hypoxanthine incorporation assay; type: functional
Plasmodium falciparum [3] = assay: Chemosensitization of desethylamodiaquin against multidrug-resistant Plasmodium falciparum VS/1 by [3H]hypoxanthine incorporation assay; type: functional
Plasmodium falciparum [4] = assay: Chemosensitization of halofantrine against multidrug-resistant Plasmodium falciparum VS/1 by [3H]hypoxanthine incorporation assay; type: functional
Plasmodium falciparum [5] = assay: Chemosensitization of piperaquine against multidrug-resistant Plasmodium falciparum VS/1 by [3H]hypoxanthine incorporation assay; type: functional
Plasmodium falciparum [6] = assay: Chemosensitization of mefloquine against multidrug-resistant Plasmodium falciparum VS/1 by [3H]hypoxanthine incorporation assay; type: functional
Plasmodium falciparum [7] = assay: Chemosensitization of quinine against multidrug-resistant Plasmodium falciparum VS/1 by [3H]hypoxanthine incorporation assay; type: functional
Plasmodium falciparum [8] = assay: Chemosensitization of lumefantrine against multidrug-resistant Plasmodium falciparum VS/1 by [3H]hypoxanthine incorporation assay; type: functional
Plasmodium falciparum [9] = assay: Chemosensitization of chloroquine against multidrug-resistant Plasmodium falciparum VS/1 by [3H]hypoxanthine incorporation assay; type: functional
Plasmodium falciparum [10] = assay: Chemosensitization of sesquiterpene dihydroartemisinin pyronaridine against multidrug-resistant Plasmodium falciparum VS/1 by [3H]hypoxanthine incorporation assay; type: functional
Plasmodium falciparum [11] = assay: Chemosensitization of amodiaquin against multidrug-resistant Plasmodium falciparum VS/1 by [3H]hypoxanthine incorporation assay; type: functional
Plasmodium falciparum [12] = assay: Chemosensitization of benzonaphthyridine pyronaridine against multidrug-resistant Plasmodium falciparum VS/1 by [3H]hypoxanthine incorporation assay; type: functional
Plasmodium falciparum [13] = assay: Chemosensitization of chlorcycloguanil against multidrug-resistant Plasmodium falciparum VS/1 by [3H]hypoxanthine incorporation assay; type: functional
Plasmodium falciparum [14] = assay: Chemosensitization of pyrimethamine against multidrug-resistant Plasmodium falciparum VS/1 by [3H]hypoxanthine incorporation assay; type: functional
Plasmodium falciparum [15] = assay: Chemosensitization of methotrexate against multidrug-resistant Plasmodium falciparum VS/1 by [3H]hypoxanthine incorporation assay; type: functional
Plasmodium falciparum [16] = assay: Antiplasmodial activity against Plasmodium falciparum 3D7 by [3H]hypoxanthine incorporation assay; type: functional, organism-based
Plasmodium falciparum [17] = assay: Selectivity ratio of IC50 for Plasmodium falciparum 3D7 to IC50 for multidrug-resistant Plasmodium falciparum VS/1; type: functional

Molecule CCc1nc(N)nc(N)c1-c1ccc(Cl)cc1 [PYRIMETHAMINE] has an IC50 (Plasmodium falciparum [1]) of 5 µM.

In the case of CC1(C)N=C(N)N=C(N)N1c1ccc(Cl)c(Cl)c1 [CHLORCYCLOGUANIL], the IC50 (Plasmodium falciparum [1]) is reported as 0.079 µM.

Work on CCCN(CCC)S(=O)(=O)c1ccc(C(=O)O)cc1 [PROBENECID] yielded an FICI (Plasmodium falciparum [2]) of 0.83 nM, an FICI (Plasmodium falciparum [3]) of 1.12 nM and an FICI (Plasmodium falciparum [4]) of 0.57 nM. For the same molecule, the FICI (Plasmodium falciparum [5]) was 0.12 nM, the FICI (Plasmodium falciparum [6]) was 0.78 nM and the FICI (Plasmodium falciparum [7]) was 1.2 nM. The FICI (Plasmodium falciparum [8]) was 1.21 nM, the FICI (Plasmodium falciparum [9]) was 0.78 nM and the FICI (Plasmodium falciparum [10]) was 1.12 nM. The FICI (Plasmodium falciparum [11]) was 1.57 nM, the FICI (Plasmodium falciparum [12]) was 5.9 nM and the FICI (Plasmodium falciparum [13]) was 0.64 nM. The FICI (Plasmodium falciparum [14]) was 0.2 nM and the FICI (Plasmodium falciparum [15]) was 1.02 nM.

Molecule COc1ccc(CCN(C)CCCC(C#N)(c2ccc(OC)c(OC)c2)C(C)C)cc1OC (configuration not stated) [VERAPAMIL] has an FICI (Plasmodium falciparum [2]) of 0.71 nM, an FICI (Plasmodium falciparum [3]) of 0.47 nM and an FICI (Plasmodium falciparum [4]) of 1.1 nM. For the same molecule, the FICI (Plasmodium falciparum [5]) was 1.13 nM, the FICI (Plasmodium falciparum [6]) was 1.12 nM and the FICI (Plasmodium falciparum [7]) was 0.39 nM. The FICI (Plasmodium falciparum [8]) was 0.55 nM, the FICI (Plasmodium falciparum [9]) was 0.52 nM and the FICI (Plasmodium falciparum [10]) was 1.07 nM. For the same molecule, the FICI (Plasmodium falciparum [11]) was 1.4 nM, the FICI (Plasmodium falciparum [12]) was 1.07 nM and the FICI (Plasmodium falciparum [13]) was 1 nM. It also gave an FICI (Plasmodium falciparum [14]) of 1.07 nM and an FICI (Plasmodium falciparum [15]) of 1.33 nM.

With CCNCc1cc(Nc2ccnc3cc(Cl)ccc23)ccc1O [DESETHYL AMODIAQUINE] the IC50 (Plasmodium falciparum [1]) was 0.042 µM.

CCN(CC)Cc1cc(Nc2ccnc3cc(Cl)ccc23)ccc1O showed an IC50 (Plasmodium falciparum [1]) of 0.008 µM.

In the case of COc1cc(NC(C)CCCN)c2ncccc2c1 (configuration not stated) [PRIMAQUINE], the IC50 (Plasmodium falciparum [1]) is reported as 0.326 µM, the IC50 (Plasmodium falciparum [16]) is reported as 0.326 µM and the “Ratio IC50” value (Plasmodium falciparum [17]) is reported as 5.

For C=C[C@H]1CN2CC[C@H]1C[C@H]2[C@H](O)c1ccnc2ccc(OC)cc12 [QUININE], the IC50 (Plasmodium falciparum [1]) was 0.133 µM.

For Clc1ccc2c(N3CCN(CCCN4CCN(c5ccnc6cc(Cl)ccc56)CC4)CC3)ccnc2c1 [PIPERAQUINE], the IC50 (Plasmodium falciparum [1]) was 0.088 µM.

For CN(Cc1cnc2nc(N)nc(N)c2n1)c1ccc(C(=O)N[C@@H](CCC(=O)O)C(=O)O)cc1 [METHOTREXATE], the IC50 (Plasmodium falciparum [1]) was 0.063 µM.

For CCCCN(CCCC)CC(O)c1cc(Cl)cc2c1-c1ccc(Cl)cc1/C2=C/c1ccc(Cl)cc1 (configuration not stated) [LUMEFANTRINE], the IC50 (Plasmodium falciparum [1]) was 0.053 µM, the IC50 (Plasmodium falciparum [16]) was 1.69 µM and the “Ratio IC50” value (Plasmodium falciparum [17]) was 2.

Work on CCCCN(CCCC)CCC(O)c1cc2c(Cl)cc(Cl)cc2c2cc(C(F)(F)F)ccc12 (configuration not stated) [HALOFANTRINE] yielded an IC50 (Plasmodium falciparum [1]) of 0.009 µM.
